According to patent publication EP4134440B1, “MALVA SYLVESTRIS FERMENTATION PRODUCT AND USE THEREOF” (Kabushiki Kaisha Yakult Honsha, priority 2020, dated 2021):
Values after ≈ are worked out from the molar mass of the structure shown.

How the values were obtained:
[1] = system: B16 mouse melanoma cells (B16-F1); experiment: Melanin production suppression test: intracellular melanin production level; format: cell-based; conditions: 72 h, three days in 0.5 mM theophylline-containing medium, concentration expressed as evaporation residue concentration
Procedure: (§1) As cells, B16 mouse melanoma cells (B16-F1) were used. Cells passaged 5-10 times, counting from the time of purchase, were used in the test. As medium, DMEM containing 5 or 10% FBS was used.
A quantity of 500 µL of DMEM medium containing 5% FBS was placed in a 24-well plate, and B16 melanoma cells were seeded 1.4 × 10^4 cells/well ([…]), then cultured for 24 hours at 37°C under 5% CO2. Thereafter, the medium was replaced with 1 mL of 0.5 mM theophylline-containing medium containing a test sample, and the cells were cultured for another three days. […]
After culture was completed, the cells were washed twice with PBS(-) and fixed with 99.5% ethanol. […] After allowing to cool, the entire amount of cell lysate was transferred to a 96-well plate, and the 405 nm absorbance was measured. The intracellular melanin production level per culture well was determined from a calibration curve that used synthetic melanin, and the intracellular melanin production level relative to the control was determined by the following formula. […]
The melanin production-suppressing activity of the obtained fermentation supernatants or unfermented plant extract was measured using B16 melanoma cells in the same way as in Test Example 2. […]

[2] = system: B16 mouse melanoma cells (B16-F1); experiment: Melanin production suppression test: intracellular protein level (BCA method); format: cell-based; conditions: 72 h, three days in 0.5 mM theophylline-containing medium, concentration as evaporation residue concentration, * = estimated value
Procedure: as §1
A quantity of 500 µL of DMEM medium containing 5% FBS was placed in a 24-well plate, and B16 melanoma cells were seeded 1.4 × 10^4 cells/well (7.5 × 10^4 cells/cm^2), then cultured for 24 hours at 37°C under 5% CO2. Thereafter, the medium was replaced with 1 mL of 0.5 mM theophylline-containing medium containing a test sample, and the cells were cultured for another three days.
As the test sample, a fermentation supernatant by each lactic acid bacterium or unfermented Malva sylvestris extract was added to make a blend ratio (volume ratio) of 0.5%, 1%, 2%, or 5% in the medium, taking the undiluted sample solution as 100%. As a control, RO water was added to the medium in the same blend ratios instead of the fermentation supernatant by each lactic acid bacterium or unfermented Malva sylvestris extract. […]
The cell lysate was diluted ten-fold by ultrapure water (milli-Q water) and assayed by the BCA method (Pierce BCA Protein assay kit) using BSA as the reference protein, and the intracellular protein level relative to the control was determined using the following formula. […]

- IC50 [1]: 340 µg/mL (≈ 1250 µM)
- IC50 [2]: 1200 µg/mL (≈ 4410 µM)
Compound: OC[C@H]1O[C@@H](Oc2ccc(O)cc2)[C@H](O)[C@@H](O)[C@@H]1O [compound 15, Arbutin]
